In patent US10526322B2, “Inhibitors of kidney-type glutaminase, GLS-1” (CORNELL UNIVERSITY, priority 2014, dated 2020) one finds Dbl-induced focus formation data, which are given here for one molecule.

This experiment deals with Dbl-inducible MEFs. The experiment in a line: Foci forming assay. Type of experiment: cell-based, mouse. The conditions noted are these: MEFs expressing Dbl, 10 μM 968. An excerpt: Inducible oncogenic Dbl cell lines were created using the TET-OFF system in mouse embryonic fibroblasts (MEFs) following the manufacturer's instructions (Clontech). Briefly, PCR products for onco-Dbl-containing NotI and XbaI restriction endonuclease sites were cloned in the per2.1 vector using the TOPO-TA cloning kit (Invitrogen) and subsequently subcloned into the p-TREHA vector (Clontech). The pTRE-HA-onco-Dbl was then co-transfected with pMET-Puro in a 20:1 ratio into parental MEFs (Clontech), which contained the transcriptional transactivator (tTa), with Lipofectamine (Invitrogen). Cells were placed under puromycin selection at 48 hours post transfection, and colonies were selected after 2-4 weeks for doxycycline-dependent expression of HA-onco-Dbl using HA.11 antibody (Covance). Cells were maintained in DMEM supplemented with 10% (v/v) Tet system-approved FBS (clontech) and 100 μg/mL G418 (Gibco). To suppress Dbl expression, 1 μg/mL doxycycline was added to the medium every 2 days. Cells were induced by re-plating in doxycycline-free medium where residual doxycycline was removed by replacing the medium 3 hours after plating. Immunofluorescence was conducted on cells grown 48-72 hours on glass cover slips and fixed with 3.7% formaldehyde. […] Digital images were collected using a Zeiss fluorescence microscope and AxioVision 3.1 software. […]

Take `CN(C)c1ccc(C2Nc3ccc4ccccc4c3C3=C2C(=O)CC(C)(C)C3)cc1Br` (stereo not shown) [Compound 968]: the Dbl-induced focus formation result was “blocked”.
